# Measurements published in patent publication US20080045537A1, “Chemical Compounds” (priority 2004, published 2008).
# System: HIV-1 IIIB (T-tropic, CXCR4 utilizing)
# Assay: HOS HIV-1 infectivity assay
# Type: cell-based
# Settings: Human immunodeficiency virus 1, IIIB, read-out: Activity Level
# Protocol: Compounds were profiled against two HIV-1 viruses, the M-tropic (CCR5 utilizing) Ba-L strain and the T-tropic (CXCR4 utilizing) IIIB strain. Both viruses were propagated in human peripheral blood lymphocytes. Compounds were tested for there ability to block infection of the HOS cell line (expressing hCXCR4/hCCR5/hCD4/pHIV-LTR-luciferase) by either HIV-1 Ba-L or HIV-1 IIIB. Compound cytotoxicity was also examined in the absence of virus addition.
# HOS cells (expressing hCXCR4/hCCR5/hCD4/pHIV-LTR-luciferase) were harvested and diluted in Dulbeccos modified Eagles media supplemented with 2% FCS and non-essential amino acid to a concentration of 60,000 cells/ml. The cells were plated into 96-well plates (100 ul per well) and the plates were placed in a tissue culture incubator (37° C.; 5% CO2/95% air) for a period of 24 h.
# Subsequently, 50 ul of the desired drug solution (4 times the final concentration) was added to each well and the plates were returned to the tissue culture incubator (37° C.; 5% CO2/95% air) for 1 h. Following this incubation 50 ul of diluted virus was added to each well (approximately 2 million RLU per well of virus). The plates were returned to the tissue culture incubator (37° C.; 5% CO2/95% air) and were incubated for a further 96 h.
# Following this incubation the endpoint for the virally infected cultures was quantified following addition of Steady-Glo Luciferase assay system reagent (Promega, Madison, Wis.). Cell viability or non-infected cultures was measured using a CellTiter-Glo luminescent cell viability assay system (Promega, Madison, Wis.). All luminescent readouts are performed on a Topcount luminescence detector (Packard, Meridien, Conn.).
row,SMILES,IC50 [nM]
1,"CN(Cc1nc2c(C(=O)N3C[C@@H]4C[C@H]3CN4)cccc2[nH]1)C1CCCc2cccnc21 (stereo partly drawn) [Example 92, N-({4-[(1S,4S)-2,5-diazabicyclo[2.2.1]hept-2-ylcarbonyl]-1H-benzimidazol-2-yl}methyl)-N-methyl-5,6,7,8-tetrahydro-8-quinolinamine]",< 100

# Same assay, conditions: Human immunodeficiency virus 1, IIIB; as determined by the infectivity assay; strain not stated in Table 2; read-out: Activity Level
row,SMILES,IC50 [nM]
1,"Cn1c(CN(CCCO)[C@H]2CCCc3cccnc32)nc2cccc(N3CCNCC3)c21 [Example 179, 3-{{[1-Methyl-7-(1-piperazinyl)-1H-benzimidazol-2-yl]methyl}[(8S)-5,6,7,8-tetrahydro-8-quinolinyl]amino-}1-propanol]",< 100
2,"CN1CCN(c2cccc3nc(CNC4CCc5cccnc54)[nH]c23)CC1 (stereo not drawn) [Example 182, N-{[4-(4-Methyl-1-piperazinyl)-1H-benzimidazol-2-yl]methyl}-6,7-dihydro-5H-cyclopenta[b]pyridin-7-amine]",100 to 500
3,"CCN(Cc1nc2cccc(N3CCN(C)CC3)c2[nH]1)[C@@H]1CCCc2cccnc21 [Example 134, (8R)—N-Ethyl-N-{[4-(4-methyl-1-piperazinyl)-1H-benzimidazol-2-yl]methyl}-5,6,7,8-tetrahydro-8-quinolinamine]",< 100
4,"CN1CCN(c2cccc3nc(CN(CC4CC4)C4CCCc5cccnc54)n(C)c23)CC1 (stereo not drawn) [Example 156, N-(Cyclopropylmethyl)-N-{[1-methyl-7-(4-methyl-1-piperazinyl)-1H-benzimidazol-2-yl]methyl}-5,6,7,8-tetrahydro-8-quinolinamine]",< 100
5,"CCCN(Cc1nc2cccc(N3CCN(C)CC3)c2n1C)[C@H]1CCCc2cccnc21 [Example 168, (8S)—N-{[1-Methyl-7-(4-methyl-1-piperazinyl)-1H-benzimidazol-2-yl]methyl}-N-propyl-5,6,7,8-tetrahydro-8-quinolinamine]",< 100
6,"CN1CCN(c2cccc3nc(CN(CCCO)[C@H]4CCCc5cccnc54)n(C)c23)CC1 [Example 181, 3-{{[1-Methyl-7-(4-methyl-1-piperazinyl)-1H-benzimidazol-2-yl]methyl}[(8S)-5,6,7,8-tetrahydro-8-quinolinyl]amino}-1-propanol]",< 100
7,"CN1CCN(c2cccc3nc(CNC4CCCCc5cccnc54)[nH]c23)CC1 (stereo not drawn) [Example 184, N-{[4-(4-methyl-1-piperazinyl)-1H-benzimidazol-2-yl]methyl}-6,7,8,9-tetrahydro-5H-cyclohepta[b]pyridin-9-amine]",< 100
8,"CN(Cc1nc2cccc(C(=O)N3CCN(Cc4ccccc4)CC3)c2[nH]1)C1CCCc2cccnc21 (stereo not drawn) [Example 62, N-Methyl-N-[(4-{[4-(phenylmethyl)-1-piperazinyl]carbonyl}-1H-benzimidazol-2-yl)methyl]-5,6,7,8-tetrahydro-8-quinolinamine]",500 to 10000
9,"CN(Cc1nc2c(C(=O)N3CCC(N)C3)cccc2[nH]1)C1CCCc2cccnc21 (stereo not drawn) [Example 83, N-({4-[(3-amino-1-pyrrolidinyl)carbonyl]-1H-benzimidazol-2-yl}methyl)-N-methyl-5,6,7,8-tetrahydro-8-quinolinamine]",< 100
10,"CCCN(Cc1nc2cccc(N3CCN(C)CC3)c2n1C)C1CCCc2cccnc21 (stereo not drawn) [Example 155, N-{[1-Methyl-7-(4-methyl-1-piperazinyl)-1H-benzimidazol-2-yl]methyl}-N-propyl-5,6,7,8-tetrahydro-8-quinolinamine]",< 100
11,"CN1CCN(c2cccc3nc(CN(C4CC4)C4CCCc5cccnc54)[nH]c23)CC1 (stereo not drawn) [Example 145, N-Cyclopropyl-N-{[4-(4-methyl-1-piperazinyl)-1H-benzimidazol-2-yl]methyl}-5,6,7,8-tetrahydro-8-quinolinamine]",< 100

# The next lines start with the values.
row,IC50 [nM],SMILES
1,100 to 500,"CCN(Cc1nc2cc(C(=O)NCCN(C)C)ccc2[nH]1)C1CCCc2cccnc21 (stereo not drawn) [Example 50, N-[2-(Dimethylamino)ethyl]-2-{[ethyl(5,6,7,8-tetrahydro-8-quinolinyl)amino]methyl}-1H-benzimidazole-5-carboxamide]"
2,500 to 10000,"CN(Cc1nc2c(NC(=O)c3ccncc3)cccc2[nH]1)C1CCCc2cccnc21 (stereo not drawn) [Example 103, N-(2-{[Methyl(5,6,7,8-tetrahydro-8-quinolinyl)amino]methyl}-1H-benzimidazol-4-yl)-4-pyridinecarboxamide]"
3,< 100,"CC(C)N(Cc1nc2c(N3CCN(C)CC3)cccc2[nH]1)C1CCCc2cccnc21 (stereo not drawn) [Example 112, N-(1-Methylethyl)-N-{[4-(4-methyl-1-piperazinyl)-1H-benzimidazol-2-yl]methyl}-5,6,7,8-tetrahydro-8-quinolinamine]"
4,< 100,"CN(C)CCCc1cccc2[nH]c(CN(C)C3CCCc4cccnc43)nc12 (stereo not drawn) [Example 94, N-({4-[3-(Dimethylamino)propyl]-1H-benzimidazol-2-yl}methyl)-N-methyl-5,6,7,8-tetrahydro-8-quinolinamine]"
5,< 100,"CN1C[C@H]2C[C@H](C1)CN(c1cccc3nc(CN(C)[C@H]4CCCc5cccnc54)[nH]c13)C2 [Example 144, (8S)—N-methyl-N-({4-[(1R,5R)-7-methyl-3,7-diazabicyclo[3.3.1]non-3-yl]-1H-benzimidazol-2-yl}methyl)-5,6,7,8-tetrahydro-8-quinolinamine]"
6,< 100,"CN(Cc1nc2c(C(=O)NC3CCNC3)cccc2[nH]1)C1CCCc2cccnc21 (stereo not drawn) [Example 78, 2-{[Methyl(5,6,7,8-tetrahydro-8-quinolinyl)amino]methyl}-N-3-pyrrolidinyl-1H-benzimidazole-4-carboxamide]"
7,< 100,"CN1CCN(c2cccc3nc(CN(C)[C@@H]4CCCc5cccnc54)[nH]c23)CC1 [Example 133A, (8R)—N-Methyl-N-{[4-(4-methyl-1-piperazinyl)-1H-benzimidazol-2-yl]methyl}-5,6,7,8-tetrahydro-8-quinolinamine]"
8,100 to 500,"CCS(=O)(=O)N1CCN(C(=O)c2cccc3[nH]c(CN(C)C4CCCc5cccnc54)nc23)CC1 (stereo not drawn) [Example 85, N-[(4-{[4-(Ethylsulfonyl)-1-piperazinyl]carbonyl}-1H-benzimidazol-2-yl)methyl]-N-methyl-5,6,7,8-tetrahydro-8-quinolinamine]"
9,500 to 10000,"CN(Cc1nc2c(C(=O)NCCc3c[nH]c4ccccc34)cccc2[nH]1)C1CCCc2cccnc21 (stereo not drawn) [Example 81, N-[2-(1H-Indol-3-yl)ethyl]-2-{[methyl(5,6,7,8-tetrahydro-8-quinolinyl)amino]methyl}-1H-benzimidazole-4-carboxamide]"
10,< 100,"CN(Cc1nc2c(C(=O)NCCCn3ccnc3)cccc2[nH]1)C1CCCc2cccnc21 (stereo not drawn) [Example 79, N-[3-(1H-Imidazol-1-yl)propyl]-2-{[methyl(5,6,7,8-tetrahydro-8-quinolinyl)amino]methyl}-1H-benzimidazole-4-carboxamide]"
11,< 100,"CN(C)CCNc1cccc2[nH]c(CN(C)C3CCCc4cccnc43)nc12 (stereo not drawn) [Example 107, [2-(Dimethylamino)ethyl](2-{[methyl(5,6,7,8-tetrahydro-8-quinolinyl)amino]methyl}-1H-benzimidazol-4-yl)amine]"
12,500 to 10000,"COCCNC(=O)c1cccc2nc(CN(C)C3CCCc4cccnc43)[nH]c12 (stereo not drawn) [Example 64, N-[2-(Methyloxy)ethyl]-2-{[methyl(5,6,7,8-tetrahydro-8-quinolinyl)amino]methyl}-1H-benzimidazole-4-carboxamide]"
13,500 to 10000,"CN(Cc1nc2c(C(=O)N3CCN(Cc4ccccn4)CC3)cccc2[nH]1)C1CCCc2cccnc21 (stereo not drawn) [Example 68, N-Methyl-N-[(4-{[4-(2-pyridinylmethyl)-1-piperazinyl]-carbonyl}-1H-benzimidazol-2-yl)methyl]-5,6,7,8-tetrahydro-8-quinolinamine]"
14,100 to 500,"CN1CCN(CCCNC(=O)c2cccc3[nH]c(CN(C)C4CCCc5cccnc54)nc23)CC1 (stereo not drawn) [Example 73, N-[3-(4-Methyl-1-piperazinyl)propyl]-2-{[methyl(5,6,7,8-tetrahydro-8-quinolinyl)amino]methyl}-1H-benzimidazole-4-carboxamide]"
15,100 to 500,"CN(Cc1nc2cc(C(=O)NCC(C)(C)CN)ccc2[nH]1)C1CCCc2cccnc21 (stereo not drawn) [Example 54, N-(3-Amino-2,2-dimethylpropyl)-2-{[methyl(5,6,7,8-tetrahydro-8-quinolinyl)amino]methyl}-1H-benzimidazole-5-carboxamide]"
16,100 to 500,"CN(C)C1CCN(C(=O)c2cccc3[nH]c(CN(C)C4CCCc5cccnc54)nc23)C1 (stereo not drawn) [Example 89, N-[(4-{[3-(Dimethylamino)-1-pyrrolidinyl]carbonyl}-1H-benzimidazol-2-yl)methyl]-N-methyl-5,6,7,8-tetrahydro-8-quinolinamine]"
17,100 to 500,"CC(=O)N1CCN(c2cccc3[nH]c(CN(C)C4CCCc5cccnc54)nc23)CC1 (stereo not drawn) [Example 110, N-{[4-(4-Acetyl-1-piperazinyl)-1H-benzimidazol-2-yl]methyl}-N-methyl-5,6,7,8-tetrahydro-8-quinolinamine]"
18,100 to 500,"CN(Cc1nc2c(C(=O)NCCc3cncn3C)cccc2[nH]1)C1CCCc2cccnc21 (stereo not drawn) [Example 67, N-[2-(1-methyl-1H-imidazol-5-yl)ethyl]-2-{[methyl(5,6,7,8-tetrahydro-8-quinolinyl)amino]methyl}-1H-benzimidazole-4-carboxamide]"
